Data published in patent US20220259235A1, “EGFR Inhibitor, Composition, and Preparation Method Therefor” (BETTA PHARMACEUTICALS CO., LTD, priority 2019, published 2022).
Where two headings read alike, the source gives them in different places.

Tests used:
EGFR Δ19del/T790M/C797S = EGFR Δ19del/T790M/C797S (Homo sapiens, UniProt P00533, T790M/C797S, form not given); assay: EGFR Δ19del/T790M/C797S kinase test (mobility shift, Caliper EZ Reader); assay type: biochemical; details: kinase enzymatic activity
Sequence of EGFR Δ19del/T790M/C797S (P00533 with tags, fused parts or gaps DEL746-750/T790M/C797S, form open): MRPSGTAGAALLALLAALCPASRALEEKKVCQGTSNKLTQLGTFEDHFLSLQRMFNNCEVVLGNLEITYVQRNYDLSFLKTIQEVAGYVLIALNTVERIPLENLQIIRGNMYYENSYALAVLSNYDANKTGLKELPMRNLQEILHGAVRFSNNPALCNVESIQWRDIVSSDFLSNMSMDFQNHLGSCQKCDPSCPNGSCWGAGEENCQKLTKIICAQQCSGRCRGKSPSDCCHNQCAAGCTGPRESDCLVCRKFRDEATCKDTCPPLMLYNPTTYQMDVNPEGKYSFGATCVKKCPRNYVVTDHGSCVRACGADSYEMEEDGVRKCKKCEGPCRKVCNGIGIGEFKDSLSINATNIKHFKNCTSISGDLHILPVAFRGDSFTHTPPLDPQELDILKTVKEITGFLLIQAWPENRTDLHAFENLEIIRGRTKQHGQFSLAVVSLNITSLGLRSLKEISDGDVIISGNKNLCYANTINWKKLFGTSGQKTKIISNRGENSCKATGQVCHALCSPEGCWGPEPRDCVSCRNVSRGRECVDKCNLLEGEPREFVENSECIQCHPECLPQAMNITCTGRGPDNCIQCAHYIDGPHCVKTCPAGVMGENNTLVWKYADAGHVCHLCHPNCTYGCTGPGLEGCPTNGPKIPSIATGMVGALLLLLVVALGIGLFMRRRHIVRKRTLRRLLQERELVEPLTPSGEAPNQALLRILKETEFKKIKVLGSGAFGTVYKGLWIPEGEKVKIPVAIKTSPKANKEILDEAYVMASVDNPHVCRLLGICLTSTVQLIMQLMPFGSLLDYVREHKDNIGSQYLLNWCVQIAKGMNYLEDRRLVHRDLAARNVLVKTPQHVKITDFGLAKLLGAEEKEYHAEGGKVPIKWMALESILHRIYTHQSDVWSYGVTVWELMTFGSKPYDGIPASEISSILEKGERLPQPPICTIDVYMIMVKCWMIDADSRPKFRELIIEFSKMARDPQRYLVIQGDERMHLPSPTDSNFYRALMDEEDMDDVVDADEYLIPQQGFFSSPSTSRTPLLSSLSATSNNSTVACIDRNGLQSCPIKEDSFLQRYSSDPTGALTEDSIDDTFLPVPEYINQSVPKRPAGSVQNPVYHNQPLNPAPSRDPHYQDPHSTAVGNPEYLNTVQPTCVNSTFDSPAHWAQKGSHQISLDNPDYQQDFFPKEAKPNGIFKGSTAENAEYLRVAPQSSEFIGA
Method: Mobility variation analysis was performed to determine the affinity of the compound for EGFRΔ19del/T790M/C797S. The enzymatic reaction scheme is as follows:
1. Prepare 1* kinase buffer as follows:
2. Preparation of compound concentration gradient: The test compound was tested with an initial concentration of 3000 nM or 100 nM, diluted in a 384 source plate to a 100% DMSO solution with 100-fold final concentration, and the compound is 3-fold diluted with Precision to 10 concentrations. A dispenser Echo 550 was used to transfer 250 nL 100-fold final concentration of the compound to the target plate OptiPlate-384F.
3. Prepare 2.5-fold final concentration of kinase solution with 1×Kinase buffer;
4. Add 10 μL of 2.5-fold final concentration of kinase solution to the compound well and the positive control well; add 10 μL of 1×Kinase buffer to the negative control well.
5. Centrifuge at 1000 rpm for 30 seconds, shake the reaction plate for well mixation, and then incubate at room temperature for 10 minutes.
6. Prepare a mixture of ATP and Kinase substrate at 5/3-fold final concentration with 1×Kinase buffer.
7. Add 15 μL mixture of 5/3-fold final concentration of ATP and substrate to start reaction.
8. Centrifuge the 384-well plate at 1000 rpm for 30 seconds, shake it well and then incubate it at room temperature for corresponding time.
9. Add 30 μL of stop detection solution to stop the kinase reaction, centrifuge at 1000 rpm for 30 seconds, shake it well.
10. Read conversion rate with Caliper EZ Reader.
% Inhibition=((Conversion%_max−Conversion%_sample)/(Conversion%_max−Conversion%_min))*100
Wherein: Conversion%_sample is the sample conversion rate reading; Conversion%_min: Mean value of negative control wells, representing the conversion rate reading of wells without enzymatic activity; Conversion%_max: Mean value of positive control wells, representing the conversion rate reading of wells without compound inhibition.
The dose-effect curve was fitted with concentration log value as X-axis and percentage inhibition rate as Y-axis. Log (inhibitor) vs. Response—Variable Slope of GraphPad Prism 5 was used to fit the dose-effect curve to obtain IC50 value of enzymatic activity for each compound.
The calculation formula is as Y=Bottom (Top−Bottom)/(1+10^((LogIC50−X)*HillSlope)).
As illustrated in examples, IC50 value is within the following range for the compound of the present invention: “A” represents “IC50≤1nM”; “B” represents “1 nM<IC50≤100nM”.

Ba/F3-L858R/T790M/C797S = Ba/F3-L858R/T790M/C797S (Homo sapiens, UniProt P00533, T790M/C797S/L858R, cells depend on it); assay: Ba/F3-L858R/T790M/C797S cell proliferation assay (CellTiter Glo, 72 h); assay type: cell-based; details: CTG, read-out: BaF3 L858R/T790M/C797S IC50
Sequence of Ba/F3-L858R/T790M/C797S (P00533 whole entry T790M/C797S/L858R): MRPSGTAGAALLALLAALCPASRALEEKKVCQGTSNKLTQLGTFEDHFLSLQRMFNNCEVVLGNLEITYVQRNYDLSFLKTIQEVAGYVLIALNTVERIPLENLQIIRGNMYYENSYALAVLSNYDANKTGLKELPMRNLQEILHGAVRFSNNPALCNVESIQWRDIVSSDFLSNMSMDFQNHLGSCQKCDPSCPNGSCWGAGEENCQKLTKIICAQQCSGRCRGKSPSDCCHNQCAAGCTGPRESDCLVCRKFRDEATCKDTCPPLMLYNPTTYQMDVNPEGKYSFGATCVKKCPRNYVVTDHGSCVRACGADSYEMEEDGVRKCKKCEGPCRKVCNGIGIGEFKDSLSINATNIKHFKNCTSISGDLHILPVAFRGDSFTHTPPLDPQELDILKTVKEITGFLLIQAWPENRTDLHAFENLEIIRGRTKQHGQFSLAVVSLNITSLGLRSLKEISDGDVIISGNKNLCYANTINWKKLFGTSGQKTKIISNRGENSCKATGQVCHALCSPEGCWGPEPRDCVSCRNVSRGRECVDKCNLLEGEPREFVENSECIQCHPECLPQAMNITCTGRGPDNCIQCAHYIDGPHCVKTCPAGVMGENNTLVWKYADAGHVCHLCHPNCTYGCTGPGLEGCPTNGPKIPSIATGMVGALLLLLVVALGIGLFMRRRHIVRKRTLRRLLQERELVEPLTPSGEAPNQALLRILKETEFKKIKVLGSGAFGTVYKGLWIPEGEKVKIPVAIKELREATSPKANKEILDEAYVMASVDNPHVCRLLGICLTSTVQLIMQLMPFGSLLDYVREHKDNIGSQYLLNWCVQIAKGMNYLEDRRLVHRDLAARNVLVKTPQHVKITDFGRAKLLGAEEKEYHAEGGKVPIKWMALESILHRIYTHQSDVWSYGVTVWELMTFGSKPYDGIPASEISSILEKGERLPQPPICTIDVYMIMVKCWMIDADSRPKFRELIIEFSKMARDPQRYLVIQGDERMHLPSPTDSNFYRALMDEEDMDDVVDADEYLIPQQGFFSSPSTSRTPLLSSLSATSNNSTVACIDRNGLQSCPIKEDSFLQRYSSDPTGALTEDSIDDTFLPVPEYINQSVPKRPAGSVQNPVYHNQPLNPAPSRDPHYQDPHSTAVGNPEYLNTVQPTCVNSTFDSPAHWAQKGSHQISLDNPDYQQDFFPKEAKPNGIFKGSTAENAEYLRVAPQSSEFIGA
Method: (§1) Cell line: Ba/F3 cells with stable overexpression of Δ19del/T790M/C797S or L858R/T790M/C797S mutant genes, named Ba/F3-Δ19del/T790M/C797S and Ba/F3-L858R/T790M/C797S, and A431 EGFR wild-type cell line.
(§2) RPMI 1640 and 10% FBS and 1% PS; _EM, 10% PBS and 1% PS
(§3) a) Dilute the test compound (20 mM stock solution) to 10 mM with 100% DMSO as the starting concentration, and then serially dilute 3 times with a “9+0” concentration in 96-well dilution plate (Cat #P-05525, Labcyte);
(§4) b) Dilute compound solution thereof to 1:100 in medium to prepare 10-fold working solution;
(§5) a) Centrifuge the growth cells in logarithmic phase at 1000 rpm for 5 minutes, resuspend the cells in culture medium, and then count the cells;
(§6) b) Inoculate the cells into a 96-well cell culture plate with a density of 2000 cells/well;
(§7) a) The compound prepared in Step 2 was added to a cell plate with 15 μL per well at final concentrations of 1000, 333, 111.1, 37, 12.3, 4.1, 1.4, 0.5, 0.2, and 0 nM. The final concentration of DMSO was 0.1%. The blank control well is with medium (0.1% DMSO).
(§8) b) Incubate cells in an incubatorother 72 hours;
(§9) a) Take out the 96-well cell culture plate and add 50 μl CTG reagent (CellTiter Glo kit, promega, Cat #G7573);
(§10) b) Shake the plate for 2 minutes and let cool at room temperature for 10 minutes,
(§11) c) Read luminous signal value with Perkin Elmer reader.
(§12) Analysis of Experimental Data
(§13) The data were analyzed by GraphPad Prism 6.0 software to obtain the fitting curve of compound activity.
(§14) Fining compound IC50 from nonlinear regression equation:
(§15) Y=Min+(Max−Min)/(1+10^((LogIC50−X)*slope));
(§16) X: Logarithm of compound concentration; Y: luminous signal
(§17) As illustrated in examples, IC50 value is within the following range for the compound of the present invention: “A” represents “IC50≤50 nM”; “B” represents “50 nM<IC50<100 nM”.

Ba/F3-Δ19del/T790M/C797S = Ba/F3-Δ19del/T790M/C797S (Homo sapiens, UniProt P00533, T790M/C797S, cells depend on it, form not given); assay: Ba/F3-Δ19del/T790M/C797S cell proliferation assay (CellTiter Glo, 72 h); assay type: cell-based; details: CTG, read-out: BaF3 Δ19del/T790M/C797S IC50
Sequence of Ba/F3-Δ19del/T790M/C797S (P00533 with tags, fused parts or gaps DEL746-750/T790M/C797S, form open): as the sequence (P00533 with tags, fused parts or gaps DEL746-750/T790M/C797S, form open) above
Method: as §1, §2, §3, §4, §5, §6, §7, §8, §9, §10, §11, §12, §13, §14, §15, §16, §17

[1] = test system: A431 EGFR wild-type cell line; assay: A431 EGFR wild-type cell proliferation assay (CellTiter Glo, 72 h); assay type: cell-based; details: Homo sapiens, A-431, CTG, read-out: A431 EGFR WT IC50
Method: as §1, §2, §3, §4, §5, §6, §7, §8, §9, §10, §11, §12, §13, §14, §15, §16, §17

Structure (SMILES)	IC50 (EGFR Δ19del/T790M/C797S; numeric values) [nM]	GI50 (Ba/F3-L858R/T790M/C797S; numeric values) [nM]	GI50 (Ba/F3-Δ19del/T790M/C797S; numeric values) [nM]	IC50 [1] [nM]	IC50 (EGFR Δ19del/T790M/C797S; class symbols) [nM]	GI50 (Ba/F3-L858R/T790M/C797S; class symbols) [nM]	GI50 (Ba/F3-Δ19del/T790M/C797S; class symbols) [nM]
COc1cc(N2CCC(N(C)C)CC2)c(-c2cn[nH]c2)cc1Nc1ncc(Cl)c(Nc2ccc3nccnc3c2P(C)(C)=O)n1 [Compound 3, (6-((5-Chloro-2-((4-(4-(dimethylamino)piperidin-1-yl)-2-methoxy-5-(1H-pyrazol-4-yl)benzene)amino)pyrimidin-4-yl)amino)quinoxalin-5-yl)dimethylphosphine oxide]	0.3	60.4	60.4	571			
COc1cc(N2CCC(N3CCCCC3)CC2)c(-c2cnn(C)c2)cc1Nc1ncc(Br)c(Nc2ccc3nccnc3c2P(C)(C)=O)n1 [Compound 11, (6-((2-((4-([1,4′-Bipiperidine]-1′-yl)-2-methoxy-5-(1-methyl-1H-pyrazole-4-yl)phenyl)amino)-5-bromopyrimidin-4-yl)amino)quinoxalin-5-yl)dimethylphosphine oxide]					≤ 1	≤ 50	≤ 50
COc1cc(N2CCOCC2)c(-c2cnn(C)c2)cc1Nc1ncc(Br)c(Nc2ccc3nccnc3c2P(C)(C)=O)n1 [Compound 16]					≤ 1	≤ 50	≤ 50
COc1cc(N2CCC(N3CCN(C)CC3)CC2)c(-c2cnn(C)c2)cc1Nc1ncc(Br)c(Nc2ccc(C3CC3)c(C)c2P(C)(C)=O)n1 [Compound 12]					≤ 1	≤ 50	≤ 50
CCn1cc(-c2cc(Nc3ncc(Br)c(Nc4ccc5nccnc5c4P(C)(C)=O)n3)c(OC)cc2N2CCC(N3CCN(C)CC3)CC2)cn1 [Compound 19]	0.3	1.3	1	135			
COc1cc(N2CCC(N3CCN(C)CC3)CC2)c(-c2cnn(C(F)F)c2)cc1Nc1ncc(Br)c(Nc2ccc3nccnc3c2P(C)(C)=O)n1 [Compound 17]	0.3	3.8	3.5	120			
COc1cc(N2CCOCC2)c(-c2cnn(C)c2)cc1Nc1ncc(Cl)c(Nc2ccc3nccnc3c2P(C)(C)=O)n1 [Compound 9]	0.3	16.8	8	252			
CCn1cc(-c2cc(Nc3ncc(Br)c(Nc4ccc5nc(C6CC6)ccc5c4P(C)(C)=O)n3)c(OC)cc2N2CCOCC2)cn1 [Compound 24]	17						
COc1cc(N2CCC(N3CCN(C)CC3)CC2)c(-c2cnn(C)c2)cc1Nc1ncc(Br)c(Nc2ccc3nccnc3c2P(C)(C)=O)n1 [Compound 10]					≤ 1	≤ 50	≤ 50
COc1cc(N2CCC(N3CCN(C)CC3)CC2)c(-c2cnn(C)c2)cc1Nc1ncc(Cl)c(Nc2ccc3nc(C4CC4)ccc3c2P(C)(C)=O)n1 [Compound 28, (6-((5-Chloro-2-((2-methoxy-5-(1-methyl-1H-pyrazol-4-yl)-4-(4-(4-methylpiperazine-1-yl)piperidine-1-yl)phenyl)amino)pyrimidin-4-yl)amino)-2-cyclopropylquinolin-5-yl)dimethylphosphine oxide]	0.31	6.6	1	201			
COc1cc(N2CCN(C3CCCC3)CC2)c(-c2cnn(C)c2)cc1Nc1ncc(Br)c(Nc2ccc3nc(C4CC4)ccc3c2P(C)(C)=O)n1 [Compound 27, (6-((5-Bromo-2-((4-(4-cyclopentylpiperazine-1-yl)-2-methoxy-5-(1-methyl-1H-pyrazole-4-Yl)phenyl)amino)pyrimidin-4-yl)amino)-2-cyclopropylquinolin-5-yl)dimethylphosphine oxide]	1.3	8.7		1170			
CCn1cc(-c2cc(Nc3nccc(Nc4ccc(C)c(C)c4P(C)(C)=O)n3)c(OC)cc2N2CCOCC2)cn1 [Compound 23, (6-(2-(5-((1-Ethyl-1hydro-pyrazol-4-yl)-2-methoxy-4-morpholinophenyl)amino)pyrimidine-4-amino)-2,3dimethylphenyl) dimethylphosphine oxide]	1.4						

Other lines, results leading:

IC50 (EGFR Δ19del/T790M/C797S; numeric values) [nM]	GI50 (Ba/F3-L858R/T790M/C797S; numeric values) [nM]	GI50 (Ba/F3-Δ19del/T790M/C797S; numeric values) [nM]	IC50 [1] [nM]	IC50 (EGFR Δ19del/T790M/C797S; class symbols) [nM]	GI50 (Ba/F3-L858R/T790M/C797S; class symbols) [nM]	GI50 (Ba/F3-Δ19del/T790M/C797S; class symbols) [nM]	Structure (SMILES)
0.2	2.8	4.6	241				COc1cc(N2CCN(C3CCCC3)CC2)c(-c2cnn(C)c2)cc1Nc1ncc(Br)c(Nc2ccc(C)c(C)c2P(C)(C)=O)n1 [Compound 26, (6-((5-Bromo-2-((4-(4-cyclopentylpiperazine-1-yl)-2-methoxy-5-(1-methyl-1H-pyrazole-4-yl)phenyl)amino)pyrimidin-4-yl)amino)-2,3-dimethylphenyl)dimethylphoshine oxide]
				≤ 1	≤ 50	≤ 50	COc1cc(N2CCN3CCCC[C@@H]3C2)c(-c2cnn(C)c2)cc1Nc1ncc(Cl)c(Nc2ccc(C)c(C)c2P(C)(C)=O)n1 [Compound 8, (R)-(6-((5-chloro-2-((2-methoxy-5-(1-methyl-1H-pyrazol-4-yl)-4-(octahydro-2hydro-Pyridine[1,2-a]pyrazine-2-yl)phenyl)amino)pyrimidine-4-yl)amino)-2,3-dimethylphenyl)dimethylphosphine oxide]
				≤ 1	≤ 50	≤ 50	COc1cc(N2CCC(N3CCCC3)CC2)c(-c2cnn(C)c2)cc1Nc1ncc(Cl)c(Nc2ccc(C)c(C)c2P(C)(C)=O)n1 [Compound 6]
				1 to 100	50 to 100	50 to 100	COc1cc(N2CCC3(CC2)CN(C)C3)c(-c2cnn(C)c2)cc1Nc1ncc(Cl)c(Nc2ccc(C)c(C)c2P(C)(C)=O)n1 [Compound 7]
				≤ 1	≤ 50	≤ 50	COc1cc(N2CCC(N3CCCCC3)CC2)c(-c2cnn(C)c2)cc1Nc1ncc(Br)c(Nc2ccc(C)c(C)c2P(C)(C)=O)n1 [Compound 15, (6-((2-((4-([1,4′-Bipiperidine]-1′-yl)-2-methoxy-5-(1-methyl-1H-pyrazole-4-yl)phenyl)amino)-5-bromopyrimidine-4-yl)amino)-2,3-dimethylphenyl)dimethylphosphine oxide]
				≤ 1	≤ 50	≤ 50	COc1cc(N2CCC(N3CCN(C)CC3)CC2)c(-c2cnn(C)c2)cc1Nc1ncc(Br)c(Nc2ccc(C)c(C)c2P(C)(C)=O)n1 [Compound 14, (6-((5-Bromo-2-((2-methoxy-5-(1-methyl-1h-pyrazol-4-yl)-4-(4-(4-methylpiperazine-1-yl)piperidine-1-yl)phenyl)amino)pyrimidine-4-yl)amino)-2,3-dimethylphenyl)dimethylphosphine oxide]
				≤ 1	≤ 50	≤ 50	COc1cc(N2CCC(N3CCCCC3)CC2)c(-c2cnn(C)c2)cc1Nc1ncc(Br)c(Nc2ccc(C3CC3)c(C)c2P(C)(C)=O)n1 [Compound 13]
